Counter-ions that a name gives are not always drawn.
Row | Compound | melting point
1 | COc1cccc(S(=O)(=O)c2ccc3c(c2)OC2CNCCC32C)c1 (racemic) (as salt: HCl) [Example 4, 7-[(3-methoxyphenyl)sulfonyl]-4a-methyl-1,2,3,4,4a,9a-hexahydro[1]benzofuro[2,3-c]pyridine] | 279 to 280 °C
2 | CC(C)Oc1cccc(S(=O)(=O)c2ccc3c4c(oc3c2)C(C)(C(F)F)NCC4)c1 (single isomer, unassigned) (as salt: HCl) [Example 34, 1-(difluoromethyl)-1-methyl-7-{[3-(propan-2-yloxy)phenyl]sulfonyl}-1,2,3,4-tetrahydro[1]benzofuro[2,3-c]pyridine] | 219 to 222 °C
3 | CNC(=O)c1cccc(S(=O)(=O)c2ccc3c4c(oc3c2)CNCC4)c1 (as salt: HCl) [Example 478] | > 290 °C
4 | O=S(=O)(c1cccc(Oc2cnccn2)c1)c1ccc2c(c1)OC1CNCCC21 (centres unmarked) (as salt: HCl) [Example 580] | 234 to 236 °C
5 | CC(C)Oc1cccc(S(=O)(=O)c2ccc3c4c(oc3c2)C2(CCOC2)NCC4)c1 (single isomer, unassigned) (as salt: HCl) [Example 32, 7-{[3-(propan-2-yloxy)phenyl]sulfonyl}-3,4,4′,5′-tetrahydro-2H-spiro[1-benzofuro[2,3-c]pyridine-1,3′-furan]] | 259 to 261 °C (dec.)
6 | O=C(COc1cccc(S(=O)(=O)c2ccc3c(c2)OC2CNCCC32)c1)N1CCCC1 (centres unmarked) (as salt: HCl) [Example 564] | 195 to 196 °C
7 | CC12CCNCC1Oc1ccc(S(=O)(=O)c3ccncc3)cc12 (racemic) (as salt: HCl) [Example 13, 4a-methyl-6-(pyridin-4-ylsulfonyl)-1,2,3,4,4a,9a-hexahydro[1]benzofuro[2,3-c]pyridine] | 186 to 188 °C
8 | Cn1cnc(COc2cccc(S(=O)(=O)c3ccc4c(c3)OC3CNCCC43)c2)n1 (centres unmarked) (as salt: HCl) [Example 560] | 187 to 190 °C
9 | COCCOc1cccc(S(=O)(=O)c2ccc3c(c2)OC2CNCCC32)c1 (centres unmarked) (as salt: HCl) [Example 558] | 210 to 213 °C
10 | CC(C)Oc1cccc(S(=O)(=O)c2ccc3c4c(oc3c2)C2(CCOC2)NCC4)c1 (single isomer, unassigned) (as salt: HCl) [Example 31, 7-{[3-(propan-2-yloxy)phenyl]sulfonyl}-3,4,4′,5′-tetrahydro-2H-spiro[1-benzofuro[2,3-c]pyridine-1,3′-furan]] | 261 to 263 °C (dec.)
11 | COC(=O)CCCCOc1cccc(S(=O)(=O)c2ccc3c(c2)OC2CNCCC32)c1 (centres unmarked) (as salt: HCl) [Example 556] | 179 to 181 °C
12 | O=S(=O)(c1cccc(OCCn2cccc2)c1)c1ccc2c(c1)OC1CNCCC21 (centres unmarked) (as salt: HCl) [Example 573] | 233 to 234 °C
13 | CC12CCNCC1Oc1cc(S(=O)(=O)c3ncccn3)ccc12 (racemic) (as salt: HCl) [Example 9, 4a-methyl-7-(pyrimidin-2-ylsulfonyl)-1,2,3,4,4a,9a-hexahydro[1]benzofuro[2,3-c]pyridine] | 232 to 234 °C
14 | O=S(=O)(c1cc(F)cc(OCC2CCOCC2)c1)c1ccc2c(c1)OC1CNCCC21 (centres unmarked) (as salt: HCl) [Example 591] | 203 to 204 °C
15 | CC1(C2CC2)NCCc2c1oc1cc(S(=O)(=O)c3cccc(F)c3)ccc21 (racemic) (as salt: HCl) [Example 29, 1-cyclopropyl-7-[(3-fluorophenyl)sulfonyl]-1-methyl-1,2,3,4-tetrahydro[1]benzofuro[2,3-c]pyridine] | > 250 °C (dec.)
16 | COc1ccc(S(=O)(=O)c2ccc3c(c2)OC2CNCCC32C)cc1 (racemic) (as salt: HCl) [Example 5, 7-[(4-methoxyphenyl)sulfonyl]-4a-methyl-1,2,3,4,4a,9a-hexahydro[1]benzofuro[2,3-c]pyridine] | 283 to 284 °C
17 | Cc1ccnc(S(=O)(=O)c2ccc3c(c2)OC2CNCCC32C)n1 (racemic) (as salt: HCl) [Example 7, 4a-methyl-7-[(4-methylpyrimidin-2-yl)sulfonyl]-1,2,3,4,4a,9a-hexahydro[1]benzofuro[2,3-c]pyridine] | 199 to 201 °C
18 | CC(C)Oc1cccc(S(=O)(=O)c2ccc3c(c2)OC2CNCCC32)c1F (centres unmarked) (as salt: HCl) [Example 481] | 221 to 223 °C
19 | COc1cc(OC)cc(S(=O)(=O)c2ccc3c(c2)OC2CNCCC32C)c1 (centres unmarked) (as salt: HCl) [Example 489] | 254 to 255 °C
20 | CC(C)C(=O)NCC1(C)NCCc2c1oc1cc(S(=O)(=O)c3cccc(F)c3)ccc21 (centres unmarked) (as salt: HCl) [Example 491, N-[7-(3-Fluoro-benzenesulfonyl)-1-methyl-1,2,3,4-tetrahydro-benzofuro[2,3-c]pyridin-1-ylmethyl]-isobutyramide] | 220 to 225 °C (dec.)
21 | COCCCOc1cccc(S(=O)(=O)c2ccc3c(c2)OC2CNCCC32)c1 (centres unmarked) (as salt: HCl) [Example 576] | 179 to 181 °C
22 | CC(C)Oc1cccc(S(=O)(=O)c2ccc3c(c2)OC2CNCCC32)c1F (centres unmarked) (as salt: HCl) [Example 483] | 221 to 224 °C

Row | Compound | melting point
23 | CN(C)C(=O)c1c(F)cccc1S(=O)(=O)c1ccc2c3c(oc2c1)CNCC3 (as salt: HCl) [Example 479] | 245 to 248 °C
24 | CN(C)C(=O)CC1(C)NCCc2c1oc1cc(S(=O)(=O)c3cccc(F)c3)ccc21 (single isomer, unassigned) (as salt: HCl) [Example 50, 2-{7-[(3-fluorophenyl)sulfonyl]-1-methyl-1,2,3,4-tetrahydro[1]benzofuro[2,3-c]pyridin-1-yl}-N,N-dimethylacetamide] | 230 to 233 °C
25 | O=S(=O)(c1cccc(OCC2CC2)c1)c1ccc2c(c1)OC1CNCCC21 (centres unmarked) (as salt: HCl) [Example 555] | 208 to 210 °C
26 | C#CCOc1cccc(S(=O)(=O)c2ccc3c(c2)OC2CNCCC32)c1 (centres unmarked) (as salt: HCl) [Example 549] | 174 to 175 °C
27 | CC(C)CC1(C)NCCc2c1oc1cc(S(=O)(=O)c3cccc(F)c3)ccc21 (racemic) (as salt: HCl) [Example 36, 7-[(3-fluorophenyl)sulfonyl]-1-methyl-1-(2-methylpropyl)-1,2,3,4-tetrahydro[1]benzofuro[2,3-c]pyridine] | 284 to 286 °C
28 | CNC(=O)c1c(F)cccc1S(=O)(=O)c1ccc2c(c1)OC1CNCCC21 (centres unmarked) (as salt: HCl) [Example 477] | > 200 °C
29 | Cc1c(OCC2CCOCC2)cccc1S(=O)(=O)c1ccc2c(c1)OC1CNCCC21 (centres unmarked) (as salt: HCl) [Example 582] | 201 to 202 °C
30 | CC1(C)NCCc2c1oc1cc(S(=O)(=O)c3cccc(Cl)c3)ccc21 (as salt: HCl) [Example 17, 7-[(3-chlorophenyl)sulfonyl]-1,1-dimethyl-1,2,3,4-tetrahydro[1]benzofuro[2,3-c]pyridine] | > 200 °C (dec.)
31 | COc1ccccc1S(=O)(=O)c1ccc2c(c1)OC1CNCCC21C (racemic) (as salt: HCl) [Example 3, 7-[(2-methoxyphenyl)sulfonyl]-4a-methyl-1,2,3,4,4a,9a-hexahydro[1]benzofuro[2,3-c]pyridine] | 222 to 224 °C
32 | COc1c(F)cc(F)cc1S(=O)(=O)c1ccc2c(c1)OC1CNCCC21C (centres unmarked) (as salt: HCl) [Example 486] | 259 to 261 °C
33 | CC1(C(F)F)NCCc2c1oc1cc(S(=O)(=O)c3cccc(F)c3F)ccc21 (single isomer, unassigned; enantiomer 1) (as salt: HCl) [Example 471, 1-(Difluoromethyl)-7-[(2,3-difluorophenyl)sulfonyl]-1-methyl-1,2,3,4-tetrahydro[1]benzofuro[2,3-c]pyridine, enantiomer 1] | 247 to 250 °C
34 | O=S1(=O)CCC2(CC1)NCCc1c2oc2cc(S(=O)(=O)c3cccc(F)c3)ccc12 (as salt: HCl) [Example 38, 7-[(3-fluorophenyl)sulfonyl]-2′,3,3′,4,5′,6′-hexahydro-2H-spiro[1-benzofuro[2,3-c]pyridine-1,4′-thiopyran] 1′,1′-dioxide] | 298 to 300 °C (dec.)
35 | O=S(=O)(c1cccc(OCC2CCCCO2)c1)c1ccc2c(c1)OC1CNCCC21 (centres unmarked) (as salt: HCl) [Example 553] | 192 to 194 °C
36 | Cc1c(OCc2cccnc2)cccc1S(=O)(=O)c1ccc2c(c1)OC1CNCCC21 (centres unmarked) (as salt: HCl) [Example 566] | 179 to 182 °C
37 | O=S(=O)(c1cccc(F)c1)c1ccc2c3c(oc2c1)C(CF)(CF)NCC3 [Example 35, 1,1-bis(fluoromethyl)-7-[(3-fluorophenyl)sulfonyl]-1,2,3,4-tetrahydro[1]benzofuro[2,3-c]pyridine] | 154 to 157 °C
38 | O=S(=O)(c1cccc(OCCCO)c1)c1ccc2c(c1)OC1CNCCC21 (centres unmarked) (as salt: HCl) [Example 568] | 206 to 209 °C
39 | O=S(=O)(c1cccc(Oc2ccccn2)c1)c1ccc2c(c1)OC1CNCCC21 (centres unmarked) (as salt: HCl) [Example 579] | 198 to 203 °C
40 | O=S(=O)(c1ccc2c(c1)OC1CNCCC21)c1cccc(OCC2CCOCC2)c1F (centres unmarked) (as salt: HCl) [Example 482] | 175 to 177 °C
41 | COc1cc(OC2CCCC2)cc(S(=O)(=O)c2ccc3c(c2)OC2CNCCC32)c1 (centres unmarked) (as salt: HCl) [Example 586] | 239 to 241 °C
42 | O=S(=O)(c1cccc(F)c1)c1ccc2c3c(oc2c1)C1(CCC1)NCC3 (as salt: HCl) [Example 25, 7-[(3-fluorophenyl)sulfonyl]-3,4-dihydro-2H-spiro[1-benzofuro[2,3-c]pyridine-1,1′-cyclobutane]] | > 200 °C (dec.)
43 | CC12CCNCC1Oc1ccc(S(=O)(=O)c3ccccc3)cc12 (centres unmarked) (as salt: hydrochloride) [Example 62, 4a-Methyl-6-(phenylsulfonyl)-1,2,3,4,4a,9a-hexahydro[1]benzofuro[2,3-c]pyridine hydrochloride] | 236 to 238 °C (dec.)
44 | O=S(=O)(c1cccc(OCC2CCOCC2)c1)c1ccc2c(c1)OC1CNCCC21 (single isomer, unassigned) (as salt: HCl) [Example 548, 7-{[3-(Tetrahydro-2H-pyran-4-ylmethoxy)phenyl]sulfonyl}-1,2,3,4,4a,9a-hexahydro[1]benzofuro[2,3-c]pyridine] | 187 to 189 °C
